Results on 13 molecules are retold here after PubChem BioAssay (NCI).

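Values below derive from 48-hour exposures of cells grown in 96-well plates, with endpoints linearly interpolated between the two concentrations bracketing the appropriate inhibition level. Abbreviation: GI50, concentration required for 50% inhibition of growth. At the TGI there is no net growth.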 A value given as a limit tells only on which side of the number the result lay.

Test systems include OVCAR-5 ovarian; SN12C renal; MCF7 breast; HL-60(TB) leukemia; PC-3 prostate; SF-539 CNS; MDA-MB-231 breast; NCI-H23 lung.
What all share (experiment): growth of human tumour cells (NCI), 48 h

On to `Cc1ccc(C(=O)Nc2ccc(CN3CCN(C)CC3)c(C(F)(F)F)c2)cc1C#Cc1cncc2ncccc12`, for which the GI50 was 0.653 µM with OVCAR-5 ovarian; 0.24 µM in the experiment on SN12C renal; 1.46 µM in the experiment on MCF7 breast; 0.282 µM with HL-60(TB) leukemia; 3.15 µM in the experiment with PC-3 prostate; 0.42 µM with SF-539 CNS. The GI50 in the experiment with MDA-MB-231 breast is 0.177 µM; in the experiment with NCI-H23 lung, 0.894 µM. The TGI with OVCAR-5 ovarian was determined as 5.71 µM; in the experiment on SN12C renal it was 11.1 µM; in the experiment on MCF7 breast it was 3.44 µM; with HL-60(TB) leukemia, 1.61 µM; in the experiment with PC-3 prostate, 21.4 µM; in the experiment on SF-539 CNS, 1.55 µM. Also, the TGI in the experiment on MDA-MB-231 breast was 1.1 µM; in the experiment on NCI-H23 lung, 15.1 µM.
`COc1cc2c(cc1OCCCCCCNC(=O)c1cc3ccccc3[nH]1)N=CC1CCCN1C2=O` (stereo not given): the GI50 is above 100 µM with OVCAR-5 ovarian; 65 µM with SN12C renal; 27.3 µM in the experiment on MCF7 breast; 41.2 µM in the experiment on HL-60(TB) leukemia; 36 µM in the experiment on PC-3 prostate; 17 µM in the experiment with SF-539 CNS. Moreover, the GI50 in the experiment on MDA-MB-231 breast is 20.9 µM; in the experiment on NCI-H23 lung it was 51 µM. For the same molecule, the TGI is above 100 µM with OVCAR-5 ovarian; above 100 µM in the experiment with SN12C renal; above 100 µM with MCF7 breast; above 100 µM in the experiment with HL-60(TB) leukemia; above 100 µM in the experiment on PC-3 prostate; 33.4 µM in the experiment with SF-539 CNS. Further, the values for the TGI in the experiment on MDA-MB-231 breast and in the experiment with NCI-H23 lung were 79.1 µM and above 100 µM, respectively.
Turning to `Cc1c(N2C(=O)/C(=C\c3ccc(O)cc3)N=C2c2ccccc2)c(=O)n(-c2ccccc2)n1C`, the GI50 with OVCAR-5 ovarian, with SN12C renal, in the experiment with MCF7 breast, in the experiment with HL-60(TB) leukemia, in the experiment on PC-3 prostate and in the experiment on SF-539 CNS was above 100 µM each time. In addition, the GI50 with MDA-MB-231 breast and with NCI-H23 lung was above 100 µM each time. Moreover, the TGI with OVCAR-5 ovarian, in the experiment with SN12C renal, in the experiment with MCF7 breast, in the experiment with HL-60(TB) leukemia, with PC-3 prostate and in the experiment with SF-539 CNS was above 100 µM each time. For the same molecule, the TGI in the experiment with MDA-MB-231 breast and with NCI-H23 lung was above 100 µM throughout.
For `Cc1cc(-c2ccccc2)c(C)n1Cc1ccc(Cl)cc1`, the GI50 is 12.3 µM in the experiment with OVCAR-5 ovarian; 5.78 µM in the experiment with SN12C renal; 3.11 µM in the experiment with MCF7 breast; 4.3 µM in the experiment with HL-60(TB) leukemia; 5.18 µM with PC-3 prostate; 2.8 µM in the experiment on SF-539 CNS. In addition, the GI50 with MDA-MB-231 breast is 6.17 µM; in the experiment on NCI-H23 lung it was 8.24 µM. Moreover, the TGI is above 100 µM with OVCAR-5 ovarian; above 100 µM in the experiment on SN12C renal; above 100 µM in the experiment on MCF7 breast; 55.8 µM in the experiment with HL-60(TB) leukemia; above 100 µM with PC-3 prostate; 12.1 µM with SF-539 CNS. In addition, the TGI is 32.3 µM in the experiment on MDA-MB-231 breast and above 100 µM in the experiment with NCI-H23 lung.
Take `c1ccc(-c2n(Cc3ccc4ccccc4n3)c3ccccc3[n+]2Cc2ccc3ccccc3n2)cc1`: the GI50 in the experiment on OVCAR-5 ovarian is 0.376 µM; with SN12C renal, 0.302 µM; in the experiment with MCF7 breast, 0.274 µM; in the experiment with HL-60(TB) leukemia it was 0.151 µM; with PC-3 prostate it was 0.23 µM; in the experiment with SF-539 CNS, 0.354 µM. Further, the values for the GI50 in the experiment with MDA-MB-231 breast and in the experiment with NCI-H23 lung were 0.269 µM and 0.262 µM, respectively. For the same molecule, the TGI with OVCAR-5 ovarian came out at 2 µM; in the experiment with SN12C renal it was 1.22 µM; with MCF7 breast, 1.2 µM; with HL-60(TB) leukemia, 0.62 µM; in the experiment on PC-3 prostate, 1.35 µM; in the experiment on SF-539 CNS, 1.4 µM. Further, the TGI is 1.3 µM with MDA-MB-231 breast and 1.14 µM with NCI-H23 lung.
In the case of `CN(C)CCCNC(=O)c1cc2c3ccccc3[nH]c2c2ncccc12`, the GI50 was 20.3 µM with OVCAR-5 ovarian; 15.6 µM with SN12C renal; 14.7 µM with MCF7 breast; 16 µM in the experiment on HL-60(TB) leukemia; 24.9 µM in the experiment with PC-3 prostate; 10.8 µM with SF-539 CNS. Moreover, the GI50 with MDA-MB-231 breast was 14.4 µM; with NCI-H23 lung it was 14.6 µM. The TGI was above 100 µM in the experiment on OVCAR-5 ovarian; above 100 µM in the experiment with SN12C renal; 66.8 µM in the experiment on MCF7 breast; 41.7 µM in the experiment with HL-60(TB) leukemia; above 100 µM in the experiment with PC-3 prostate; 23.4 µM in the experiment on SF-539 CNS. Further, the TGI stood at 74.9 µM in the experiment on MDA-MB-231 breast and 29.2 µM in the experiment with NCI-H23 lung.
As for `Cc1cc[c-]cc1.Fc1c[c-]c(-c2ccccn2)c(F)c1.N#CCC[PH+](CCC#N)c1ccccc1.[Pt+2]`, the GI50 with OVCAR-5 ovarian was 3.79 µM; with SN12C renal, 3.17 µM; in the experiment on MCF7 breast, 2.68 µM; in the experiment on HL-60(TB) leukemia, 2.37 µM; with PC-3 prostate it was 3.01 µM; with SF-539 CNS it was 2.92 µM. In addition, the GI50 is 2.74 µM in the experiment on MDA-MB-231 breast and 3.45 µM in the experiment with NCI-H23 lung. For the same molecule, the TGI turned out to be 19.6 µM in the experiment with OVCAR-5 ovarian; 36.1 µM in the experiment on SN12C renal; 17.6 µM with MCF7 breast; 18.1 µM in the experiment on HL-60(TB) leukemia; 20.7 µM in the experiment on PC-3 prostate; 10.3 µM in the experiment with SF-539 CNS. The TGI with MDA-MB-231 breast came to 7.57 µM; in the experiment with NCI-H23 lung, 12.9 µM.
For `CCOC(=O)Nc1nc2c(F)c(F)c(F)cc2s1`, the GI50 with OVCAR-5 ovarian is above 100 µM; in the experiment on SN12C renal, above 100 µM; with MCF7 breast it was above 100 µM; in the experiment on HL-60(TB) leukemia, above 100 µM; in the experiment with PC-3 prostate it was above 100 µM; with SF-539 CNS, 28.7 µM. In addition, the GI50 with MDA-MB-231 breast is 36.2 µM; with NCI-H23 lung, 89 µM. Moreover, the TGI with OVCAR-5 ovarian was above 100 µM; with SN12C renal, above 100 µM; with MCF7 breast, above 100 µM; with HL-60(TB) leukemia, above 100 µM; with PC-3 prostate, above 100 µM; in the experiment with SF-539 CNS, 98.2 µM. The TGI with MDA-MB-231 breast and in the experiment on NCI-H23 lung was above 100 µM each time.
Consider `O=C1Nc2ccccc2C12CC(c1ccccc1)=NN2` (stereo not given), for which the GI50 is 16.4 µM with OVCAR-5 ovarian; 7.73 µM in the experiment on SN12C renal; 3.72 µM in the experiment on MCF7 breast; 3.29 µM with HL-60(TB) leukemia; 3.89 µM with PC-3 prostate; 3.4 µM in the experiment on SF-539 CNS. Besides, the GI50 in the experiment on MDA-MB-231 breast is 8.61 µM; with NCI-H23 lung, 9.07 µM. The TGI in the experiment on OVCAR-5 ovarian is 96.1 µM; in the experiment with SN12C renal, above 100 µM; with MCF7 breast, above 100 µM; in the experiment with HL-60(TB) leukemia, 15.3 µM; in the experiment with PC-3 prostate, above 100 µM; in the experiment with SF-539 CNS it was 15 µM. Moreover, the TGI is 79.7 µM in the experiment on MDA-MB-231 breast and above 100 µM in the experiment on NCI-H23 lung.
For the molecule `COc1ccc(C(=O)Nc2ncc(Cc3ccc(F)cc3)s2)cc1`, the GI50 with OVCAR-5 ovarian was 0.406 µM; with SN12C renal it was 0.0988 µM; with MCF7 breast, 0.0385 µM; with HL-60(TB) leukemia, 0.0315 µM; in the experiment with PC-3 prostate it was 0.0513 µM; in the experiment with SF-539 CNS it was 0.0448 µM. The GI50 with MDA-MB-231 breast was 0.2 µM; in the experiment with NCI-H23 lung, 0.368 µM. For the same molecule, the TGI is 99.6 µM with OVCAR-5 ovarian; above 100 µM with SN12C renal; above 100 µM with MCF7 breast; 0.169 µM with HL-60(TB) leukemia; above 100 µM in the experiment on PC-3 prostate; 0.414 µM with SF-539 CNS. Besides, the TGI in the experiment with MDA-MB-231 breast was 76.6 µM; in the experiment on NCI-H23 lung, above 100 µM.
Take `N/C(=N\OC(=O)NC(Cl)=C(Cl)Cl)c1cc(C(F)(F)F)cc(C(F)(F)F)c1`: the TGI was 38.3 µM in the experiment on OVCAR-5 ovarian; 60.8 µM with SN12C renal; above 100 µM in the experiment with MCF7 breast; 30 µM in the experiment on HL-60(TB) leukemia; 38.9 µM with PC-3 prostate; 29.9 µM in the experiment on SF-539 CNS. Besides, the results for the TGI in the experiment on MDA-MB-231 breast and in the experiment on NCI-H23 lung were 34.2 µM and above 100 µM, respectively.
Consider `COc1cc(/C=C/C(=O)c2c(C)n([O-])c3cc(C)c(C)cc3[n+]2=O)cc(OC)c1OC`, for which the GI50 was 17.6 µM in the experiment on OVCAR-5 ovarian; 17.5 µM in the experiment with SN12C renal; 9.62 µM in the experiment on MCF7 breast; 12.1 µM in the experiment on HL-60(TB) leukemia; 14.2 µM with PC-3 prostate; 14.9 µM in the experiment with SF-539 CNS. For the same molecule, the figures for the GI50 in the experiment on MDA-MB-231 breast and in the experiment with NCI-H23 lung were 17 µM and 16.2 µM, respectively. Also, the TGI is 47.1 µM with OVCAR-5 ovarian; 42.7 µM with SN12C renal; 25.1 µM in the experiment with MCF7 breast; 61.7 µM with HL-60(TB) leukemia; 38.5 µM in the experiment with PC-3 prostate; 31.6 µM in the experiment with SF-539 CNS. Further, the TGI in the experiment on MDA-MB-231 breast worked out at 44.7 µM; in the experiment on NCI-H23 lung, 41.9 µM.
`Cn1cc(-c2csc(-c3cn(CCN4CCOCC4)c4ccc(F)cc34)n2)c2cccnc21`: the GI50 with OVCAR-5 ovarian was 4.59 µM; in the experiment on SN12C renal it was 3.15 µM; in the experiment with MCF7 breast, 1.94 µM; with HL-60(TB) leukemia it was 2.52 µM; in the experiment on PC-3 prostate it was 2.14 µM; with SF-539 CNS, 3.16 µM. Further, the GI50 in the experiment with MDA-MB-231 breast is 2.51 µM; in the experiment on NCI-H23 lung it was 2.47 µM. Moreover, the TGI in the experiment with OVCAR-5 ovarian is above 100 µM; in the experiment on SN12C renal, above 100 µM; in the experiment with MCF7 breast, 6.55 µM; in the experiment on HL-60(TB) leukemia, 6.87 µM; in the experiment on PC-3 prostate it was 6.64 µM; with SF-539 CNS, 16.2 µM. Moreover, the TGI came to 8.48 µM with MDA-MB-231 breast and 7.89 µM in the experiment with NCI-H23 lung.
